{"source": "patent US7183415B2", "about": "“Quinoline compound” (Takeda Pharmaceutical Company Limited, priority 2001, dated 2007)"}
{"smiles": "COc1ccc(COc2ccc(C(=O)Nc3ccc4cc(CN5CCCC5)cnc4c3C)cc2)cc1", "note": "[Example 126, 4-[(4-methoxybenzyl)oxy]-N-[8-methyl-3-(1-pyrrolidinylmethyl)-7-quinolinyl]benzamide]", "melting point": "192 to 193 °C"}
{"smiles": "COc1ccc(C2CCN(C(=O)Nc3ccc4cc(CN5CCCC5)cnc4c3)CC2)cc1", "note": "[Example 13, 4-(4-methoxyphenyl)-N-[3-(1-pyrrolidinylmethyl)-7-quinolinyl]-1-piperidine carboxamide]", "melting point": "241 to 243 °C"}
{"smiles": "Cc1cc2cc(CN3CCCC3)cnc2cc1NC(=O)c1ccc(-c2ccc(Cl)cc2)cc1F", "note": "[Example 230, 4′-chloro-3-fluoro-N-[6-methyl-3-(1-pyrrolidinylmethyl)-7-quinolinyl][1,1′-biphenyl]-4-carboxamide]", "melting point": "195 to 198 °C"}
{"smiles": "Cc1cc2cc(CN3CCOCC3)cnc2cc1NC(=O)c1ccc(-c2ccc(F)cc2)cc1", "note": "[Example 252, 4′-fluoro-N-[6-methyl-3-(4-morpholinylmethyl)-7-quinolinyl][1,1′-biphenyl]-4-carboxamide]", "melting point": "153 to 158 °C"}
{"smiles": "O=C(Nc1ccc2cc(CN3CCCC3)cnc2c1)N1CCC(c2ccc(Cl)cc2)CC1", "note": "[Example 16, 4-(4-chlorophenyl)-N-[3-(1-pyrrolidinylmethyl)-7-quinolinyl]-1-piperidine carboxamide]", "melting point": "249 to 251 °C"}
{"smiles": "Cc1c(NC(=O)c2ccc(-c3ccc(Cl)cc3Cl)cc2F)ccc2cc(CN3CCCC3)cnc12", "note": "(hydrate or solvate) [Example 137, 2′,4′-dichloro-3-fluoro-N-[8-methyl-3-(1-pyrrolidinylmethyl)-7-quinolinyl][1,1′-biphenyl]-4-carboxamide]", "melting point": "162 to 163 °C"}
{"smiles": "Cc1ccc(-c2ccc(C(=O)Nc3ccc4cc(CN5CCCC5)cnc4c3)cn2)cc1", "note": "[Example 10, 6-(4-methylphenyl)-N-[3-(1-pyrrolidinylmethyl)-7-quinolinyl]nicotinamide]", "melting point": "226 to 228 °C"}
{"smiles": "CCNC(=O)COC1CCN(Cc2cnc3cc(NC(=O)c4ccc(-c5ccc(F)cc5)cc4)ccc3c2)CC1", "note": "[Example 48, N-[3-({4-[2-(ethylamino)-2-oxoethoxy]-1-piperidinyl}methyl)-7-quinolinyl]-4′-fluoro[1,1′-biphenyl]-4-carboxamide]", "melting point": "228 to 230 °C"}
{"smiles": "O=C(Nc1ccc2cc(CN3CCCC3)cnc2c1F)c1ccc(-c2ccc(Cl)cc2)cc1", "note": "[Example 75, 4′-chloro-N-[8-fluoro-3-(1-pyrrolidinylmethyl)-7-quinolinyl][1,1′-biphenyl]-4-carboxamide]", "melting point": "206 to 208 °C"}
{"smiles": "Cc1c(NC(=O)c2ccc(-c3ccc(F)cc3F)cc2)ccc2cc(CN3CCCC3)cnc12", "note": "[Example 100, 2′,4′-difluoro-N-[8-methyl-3-(1-pyrrolidinylmethyl)-7-quinolinyl][1,1′-biphenyl]-4-carboxamide]", "melting point": "177 to 179 °C"}
{"smiles": "Cc1ccc(C2CCN(C(=O)Nc3ccc4cc(CN5CCCCCC5)cnc4c3)CC2)cc1", "note": "[Example 35, N-[3-(1-azepanylmethyl)-7-quinolinyl]-4-(4-methylphenyl)-1-piperidine carboxamide]", "melting point": "240 °C (dec.)"}
{"smiles": "CNC(=O)CCC1CCN(Cc2cnc3cc(NC(=O)c4ccc(-c5ccc(F)cc5)cc4)c(C)cc3c2)CC1", "note": "[Example 254, 4′-fluoro-N-[6-methyl-3-({4-[3-(methylamino)-3-oxopropyl]-1-piperidinyl}methyl)-7-quinolinyl][1,1′-biphenyl]-4-carboxamide]", "melting point": "207 to 211 °C"}
{"smiles": "Cc1c(NC(=O)c2ccc(-c3ccc(F)c(F)c3)cc2)ccc2cc(CN3CCCC3)cnc12", "note": "[Example 102, 3′,4′-difluoro-N-[8-methyl-3-(1-pyrrolidinylmethyl)-7-quinolinyl][1,1′-biphenyl]-4-carboxamide]", "melting point": "199 to 201 °C"}
{"smiles": "CCN(CC)C(=O)CC1CCN(Cc2cnc3c(C)c(NC(=O)c4ccc(-c5ccc(F)cc5)cc4)ccc3c2)CC1", "note": "[Example 204, N-[3-({4-[2-(diethylamino)-2-oxoethyl]-1-piperidinyl}methyl)-8-methyl-7-quinolinyl]-4′-fluoro[1,1′-biphenyl]-4-carboxamide]", "melting point": "158 to 160 °C"}
{"smiles": "Cc1c(NC(=O)c2ccc(OCc3ccc(F)cc3)cc2)ccc2cc(CN3CCCC3)cnc12", "note": "(hydrate or solvate) [Example 123, 4-[(4-fluorobenzyl)oxy]-N-[8-methyl-3-(1-pyrrolidinylmethyl)-7-quinolinyl]benzamide]", "melting point": "177 to 178 °C"}
{"smiles": "O=C(Nc1ccc2cc(CN3CCCC3)cnc2c1)c1ccc(-c2ccc(Cl)cc2)cc1", "note": "[Example 6, 4′-chloro-N-[3-(1-pyrrolidinylmethyl)-7-quinolinyl][1,1′-biphenyl]-4-carboxamide]", "melting point": "217 to 220 °C"}
{"smiles": "O=C(Nc1ccc2cc(CN3CCCC3)cnc2c1)c1ccc(-c2ccccc2)cc1", "note": "[Example 2, N-[3-(1-pyrrolidinylmethyl)-7-quinolinyl][1,1′-biphenyl]-4-carboxamide]", "melting point": "192 to 194 °C"}
{"smiles": "O=C(Nc1cc2ncc(CN3CCCC3)cc2cc1F)c1ccc(-c2ccc(OC(F)(F)F)cc2)cc1", "note": "[Example 56, N-[6-fluoro-3-(1-pyrrolidinylmethyl)-7-quinolinyl]-4′-(trifluoromethoxy)[1,1′-biphenyl]-4-carboxamide]", "melting point": "184 to 187 °C"}
{"smiles": "Cc1cc2cc(CN3CCCCCC3)cnc2cc1NC(=O)c1ccc(-c2ccc(Cl)cc2)cc1F", "note": "[Example 243, N-[3-(1-azepanylmethyl)-6-methyl-7-quinolinyl]-4′-chloro-3-fluoro[1,1′-biphenyl]-4-carboxamide]", "melting point": "209 °C"}
{"smiles": "Cc1ccc(-c2ccc(C(=O)Nc3ccc4cc(CN5CCCC5)cnc4c3C)cn2)cc1", "note": "[Example 94, 6-(4-methylphenyl)-N-[8-methyl-3-(1-pyrrolidinylmethyl)-7-quinolinyl]nicotinamide]", "melting point": "178 to 180 °C"}
{"smiles": "O=C(Nc1ccc2cc(CN3CCCC3)cnc2c1F)c1ccc(-c2ccc(F)cc2)cc1", "note": "[Example 73, 4′-fluoro-N-[8-fluoro-3-(1-pyrrolidinylmethyl)-7-quinolinyl][1,1′-biphenyl]-4-carboxamide]", "melting point": "178 °C"}
{"smiles": "Cc1cc2cc(CN3CCC(CCC(=O)N4CCCCC4)CC3)cnc2cc1NC(=O)c1ccc(-c2ccc(F)cc2)cc1", "note": "[Example 258, 4′-fluoro-N-[6-methyl-3-({4-[3-oxo-3-(1-piperidinyl)propyl]-1-piperidinyl}methyl)-7-quinolinyl][1,1′-biphenyl]-4-carboxamide]", "melting point": "189 to 191 °C"}
{"smiles": "COc1ccc(-c2ccc(C(=O)Nc3ccc4cc(CN5CCCCC5)cnc4c3C)cc2)cc1", "note": "[Example 165]", "melting point": "190 to 192 °C"}
{"smiles": "Cc1c(NC(=O)c2ccc(-c3cccc(F)c3)cc2)ccc2cc(CN3CCCC3)cnc12", "note": "[Example 112, 3′-fluoro-N-[8-methyl-3-(1-pyrrolidinylmethyl)-7-quinolinyl][1,1′-biphenyl]-4-carboxamide]", "melting point": "158 to 159 °C"}
{"smiles": "Cc1ccc(-c2ccc(C(=O)Nc3ccc4cc(CN5CCCC5)cnc4c3)c(F)c2)cc1", "note": "[Example 277, 3-fluoro-4′-methyl-N-[3-(1-pyrrolidinylmethyl)-7-quinolinyl][1,1′-biphenyl]-4-carboxamide]", "melting point": "173 °C"}
{"smiles": "O=C(Nc1ccc2cc(CN3CCCCCC3)cnc2c1)c1ccc(-c2ccc(Cl)cc2)cc1", "note": "[Example 27, N-[3-(1-azepanylmethyl)-7-quinolinyl]-4′-chloro[1,1′-biphenyl]-4-carboxamide]", "melting point": "204 °C"}
{"smiles": "Cc1c(NC(=O)c2ccc(-c3ccc(F)cc3)cc2)ccc2cc(CN3CCC(CC(N)=O)CC3)cnc12", "note": "[Example 200, N-(3-{[4-(2-amino-2-oxoethyl)-1-piperidinyl]methyl}-8-methyl-7-quinolinyl)-4′-fluoro[1,1′-biphenyl]-4-carboxamide]", "melting point": "258 to 260 °C"}
{"smiles": "Cc1ccc(-c2ccc(C(=O)Nc3ccc4cc(CN5CCCC5)cnc4c3)cc2)cc1", "note": "[Example 5, 4′-methyl-N-[3-(1-pyrrolidinylmethyl)-7-quinolinyl][1,1′-biphenyl]-4-carboxamide]", "melting point": "206 to 208 °C"}
{"smiles": "CSc1ccc(-c2ccc(C(=O)Nc3cc4ncc(CN5CCCC5)cc4cc3C)cc2)cc1", "note": "[Example 219, N-[6-methyl-3-(1-pyrrolidinylmethyl)-7-quinolinyl]-4′-(methylthio)-[1,1′-biphenyl]-4-carboxamide]", "melting point": "198 °C"}
{"smiles": "Cc1cc2cc(CN3CCCCCC3)cnc2cc1NC(=O)c1ccc(-c2cc3ccccc3o2)cc1", "note": "[Example 240, N-[3-(1-azepanylmethyl)-6-methyl-7-quinolinyl]-4-(1-benzofuran-2-yl)benzamide]", "melting point": "207 °C"}
{"smiles": "Cc1ccc(-c2ccc(C(=O)Nc3ccc4cc(CN5CCCC5)cnc4c3F)cc2)cc1", "note": "[Example 74, N-[8-fluoro-3-(1-pyrrolidinylmethyl)-7-quinolinyl]-4′-methyl[1,1′-biphenyl]-4-carboxamide]", "melting point": "210 to 213 °C"}
{"smiles": "CCN(CC)C(=O)CCC1CCN(Cc2cnc3cc(NC(=O)c4ccc(-c5ccc(F)cc5)cc4)c(C)cc3c2)CC1", "note": "[Example 257, N-[3-({4-[3-(diethylamino)-3-oxopropyl]-1-piperidinyl}methyl)-6-methyl-7-quinolinyl]-4′-fluoro[1,1′-biphenyl]-4-carboxamide]", "melting point": "150 to 154 °C"}
{"smiles": "Cc1c(NC(=O)c2ccc(-c3ccc(Cl)s3)cc2F)ccc2cc(CN3CCCCCC3)cnc12", "note": "(hydrate or solvate) [Example 186, N-[3-(1-azepanylmethyl)-8-methyl-7-quinolinyl]-4-(5-chloro-2-thienyl)-2-fluorobenzamide]", "melting point": "166 to 167 °C"}
{"smiles": "Cc1c(NC(=O)N2CCC(c3ccc(Cl)cc3)CC2)ccc2cc(CN3CCCC3)cnc12", "note": "[Example 98, 4-(4-chlorophenyl)-N-[8-methyl-3-(1-pyrrolidinylmethyl)-7-quinolinyl]-1-piperidine carboxamide]", "melting point": "203 to 205 °C"}
{"smiles": "O=C(Nc1cc2ncc(CN3CCCC3)cc2cc1F)c1ccc(-c2ccccc2)cc1", "note": "[Example 52, N-[6-fluoro-3-(1-pyrrolidinylmethyl)-7-quinolinyl][1,1′-biphenyl]-4-carboxamide]", "melting point": "206 to 208 °C"}
{"smiles": "COc1ccc(-c2ccc(C(=O)Nc3ccc4cc(CN5CCCCCC5)cnc4c3C)cc2F)cc1", "note": "(hydrate or solvate) [Example 190, N-[3-(1-azepanylmethyl)-8-methyl-7-quinolinyl]-2-fluoro-4′-methoxy[1,1′-biphenyl]-4-carboxamide]", "melting point": "160 to 161 °C"}
